The source of these data is patent publication US20130303763A1, “METHODS AND COMPOSITIONS FOR THE TREATMENT OF NECROTIZING ENTEROCOLITIS” (priority 2012, published 2013).

SMILES strings stand for the structures.

This assay has as its system mice suffering from NEC. Kind of assay: Treatment of necrotizing enterocolitis (NEC) induced in mice by a 5 day protocol of formula (gavage) feeding and hypoxia. The assay is classed as in vivo, mice (C57BL/6). As to the method: Ten day-old breastfed SERT knockout mice, TPH1 knockout mice and wildtype littermate mice (C57BL/6) were subjected to a 5 day protocol of formula (gavage) feeding and hypoxia. This protocol reproducibly induces NEC in mice. Weights of all groups were monitored daily and cytokines were analyzed in the distal ileum at day 5. This experiment was then repeated using two groups of mice that received 100 mg/kg or 200 mg/kg of (2S)-ethyl 2-amino-3-(4-(2-amino-6-(2,2,2-trifluoro-1-(3′-fluoro-[1,1′-biphenyl]-4-yl)ethoxy)pyrimidin-4-yl)phenyl)propanoate (LP-920540), and a control group that received vehicle.

In the case of `CCOC(=O)[C@@H](N)Cc1ccc(-c2cc(OC(c3ccc(-c4cccc(F)c4)cc3)C(F)(F)F)nc(N)n2)cc1` (stereo partly drawn) [LP-920540, (2S)-ethyl 2-amino-3-(4-(2-amino-6-(2,2,2-trifluoro-1-(3′-fluoro-[1,1′-biphenyl]-4-yl)ethoxy)pyrimidin-4-yl)phenyl)propanoate], under “100 or 200 mg/kg, five days of the experiment”, the “weight loss versus vehicle-treated animals (FIG. 1)” value was “lost significantly less weight”. Also, the “mortality (FIG. 2)” value (100 or 200 mg/kg, vehicle treated animals 50%) is recorded as 5-10%. For the setting “distal ileum at day 5”, the “levels of transcripts encoding IL-6 versus vehicle-treated mice” value is “significantly less upregulated” and the “levels of transcripts encoding IL-18 versus vehicle-treated mice” value is on record as “significantly less upregulated”.
